Where “and” joins values, the source holds several entries; their conditions need not be identical. Identical values can stand only once. Toxic doses and inconclusive results are not listed. Cut-off read from the data, not from the text of the source: active = T/C of 150% or more; inactive = T/C below 125%. Square brackets hold non-standard residues; d marks the D form. Peptide text beside a SMILES is read from it. * marks the point of attachment. ξ: configuration not given here. Cbz = O=C(OCc1ccccc1)*; ξI = CCC(C)C(N)C(=O)O
System: L1210 leukemia ip in BDF1 mice, survival T/C
Assay: NCI In Vivo Anticancer Drug Screen. Data for tumor model L1210 Leukemia (intraperitoneal) in B6D2F1 (BDF1) mice
Conditions: endpoint: mean survival time, higher = longer survival
Procedure, shortened: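 Tumor cells were implanted, animals were treated, and survival was followed. The result divides the treated measurement by the vehicle-control measurement.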

[1] = dose: 50.0 mg/kg/injection, schedule: Q01DX001 (ip), vehicle: saline
[2] = dose: 100.0 mg/kg/injection, schedule: Q01DX001 (ip), vehicle: saline
[3] = dose: 200.0 mg/kg/injection, schedule: Q01DX001 (ip), vehicle: saline
[4] = dose: 25.0 mg/kg/injection, schedule: Q04DX002 (ip), vehicle: Klucel (hydroxypropylcellulose) (HPC)
[5] = dose: 50.0 mg/kg/injection, schedule: Q04DX002 (ip), vehicle: Klucel (hydroxypropylcellulose) (HPC)
[6] = dose: 100.0 mg/kg/injection, schedule: Q01DX009 (ip), vehicle: Klucel (hydroxypropylcellulose) (HPC)
[7] = dose: 100.0 mg/kg/injection, schedule: Q04DX002 (ip), vehicle: Klucel (hydroxypropylcellulose) (HPC)
[8] = dose: 200.0 mg/kg/injection, schedule: Q01DX009 (ip), vehicle: Klucel (hydroxypropylcellulose) (HPC)
[9] = dose: 200.0 mg/kg/injection, schedule: Q04DX002 (ip), vehicle: Klucel (hydroxypropylcellulose) (HPC)
[10] = dose: 400.0 mg/kg/injection, schedule: Q01DX009 (ip), vehicle: Klucel (hydroxypropylcellulose) (HPC)
[11] = dose: 400.0 mg/kg/injection, schedule: Q04DX002 (ip), vehicle: Klucel (hydroxypropylcellulose) (HPC)
[12] = dose: 400.0 mg/kg/injection, schedule: Q01DX001 (ip), vehicle: saline
[13] = dose: 100.0 mg/kg/injection, schedule: Q04DX003 (ip), vehicle: saline
[14] = dose: 200.0 mg/kg/injection, schedule: Q04DX003 (ip), vehicle: saline
[15] = dose: 400.0 mg/kg/injection, schedule: Q04DX003 (ip), vehicle: saline
[16] = dose: 100.0 mg/kg/injection, schedule: Q04DX003 (ip), vehicle: saline with Tween-80
[17] = dose: 200.0 mg/kg/injection, schedule: Q04DX003 (ip), vehicle: saline with Tween-80
[18] = dose: 400.0 mg/kg/injection, schedule: Q04DX003 (ip), vehicle: saline with Tween-80

Measured: T/C

O=S1(=O)CCCCC1Cl (stereo not drawn)
inactive: dose: 38.0 mg/kg/injection, schedule: Q01DX009 (ip), vehicle: other 96 % of control | dose: 75.0 mg/kg/injection, schedule: Q01DX001 (ip), vehicle: other 100 % of control | dose: 75.0 mg/kg/injection, schedule: Q01DX009 (ip), vehicle: other 89 % of control | dose: 75.0 mg/kg/injection, schedule: Q04DX003 (ip), vehicle: other 98 % of control | dose: 150.0 mg/kg/injection, schedule: Q01DX001 (ip), vehicle: other 100 % of control | dose: 150.0 mg/kg/injection, schedule: Q01DX009 (ip), vehicle: other 91 % of control | dose: 150.0 mg/kg/injection, schedule: Q04DX003 (ip), vehicle: other 98 % of control | dose: 300.0 mg/kg/injection, schedule: Q01DX001 (ip), vehicle: other 103 % of control

NC(N)=N/N=C/c1ccc(Cl)cc1Cl
inactive: dose: 30.0 mg/kg/injection, schedule: Q01DX010 (oral), vehicle: saline 102 % of control | dose: 44.0 mg/kg/injection, schedule: Q01DX010 (oral), vehicle: saline 100 % of control | [1] 100 % of control | dose: 63.0 mg/kg/injection, schedule: Q01DX Z (ip), vehicle: saline 101 % of control | dose: 66.0 mg/kg/injection, schedule: Q01DX010 (oral), vehicle: saline 104 % of control | dose: 99.0 mg/kg/injection, schedule: Q01DX010 (oral), vehicle: saline 98 % of control | [2] 106 % of control | [3] 108 % of control

CCOC(=O)c1nc(N)nc(N)c1-c1ccc(Cl)cc1
inactive: dose: 25.0 mg/kg/injection, schedule: Q01DX001 (ip), vehicle: saline with Tween-80 98 % of control | dose: 50.0 mg/kg/injection, schedule: Q01DX001 (ip), vehicle: saline with Tween-80 104 % of control | dose: 100.0 mg/kg/injection, schedule: Q01DX001 (ip), vehicle: saline with Tween-80 102 % of control

Nc1cc(Cl)ccc1Cl
inactive: dose: 100.0 mg/kg/injection, schedule: Q04DX002 (ip), vehicle: gum acacia 91 % of control | dose: 200.0 mg/kg/injection, schedule: Q04DX002 (ip), vehicle: gum acacia 95 % of control | dose: 400.0 mg/kg/injection, schedule: Q04DX002 (ip), vehicle: gum acacia 95 % of control

CCCCCCCCCCCCC(C)C(=O)O (stereo not drawn)
inactive: [4] 96 % of control | [5] 93 % of control | [6] 105 % of control | [7] 101 % of control | [8] 91 % of control | [9] 98 % of control | [10] 91 % of control | [11] 98 % of control

CCN(CC)CCCC(C)Nc1cc(C)nc2ccc(N(C)C)cc12 (stereo not drawn)
inactive: dose: 12.5 mg/kg/injection, schedule: Q01DX009 (ip), vehicle: saline with Tween-80 104 % of control | dose: 25.0 mg/kg/injection, schedule: Q01DX009 (ip), vehicle: saline with Tween-80 111 % of control | dose: 50.0 mg/kg/injection, schedule: Q01DX009 (ip), vehicle: saline with Tween-80 106 % of control

CCOC(=O)C1=NN(c2ccccc2)C(=O)C1N=Nc1c(Br)cc(S(N)(=O)=O)cc1Br (stereo not drawn)
inactive: [2] 96 % of control | [3] 101 % of control | [12] 98 % of control

C=CCC(C)(C)/C=N/N
inactive: dose: 37.5 mg/kg/injection, schedule: Q04DX003 (ip), vehicle: saline 101 % of control | dose: 75.0 mg/kg/injection, schedule: Q04DX003 (ip), vehicle: saline 102 % of control | dose: 150.0 mg/kg/injection, schedule: Q04DX003 (ip), vehicle: saline 98 % of control

CC#CCOCC1CNC(=O)O1 (stereo not drawn)
inactive: dose: 25.0 mg/kg/injection, schedule: Q01DX009 (ip), vehicle: saline 98 % of control | dose: 25.0 mg/kg/injection, schedule: Q04DX003 (ip), vehicle: saline 105 % of control | dose: 50.0 mg/kg/injection, schedule: Q01DX009 (ip), vehicle: saline 93 % of control | dose: 50.0 mg/kg/injection, schedule: Q04DX003 (ip), vehicle: saline 97 % of control | dose: 100.0 mg/kg/injection, schedule: Q01DX009 (ip), vehicle: saline 93 % of control | [13] 97 % of control | dose: 200.0 mg/kg/injection, schedule: Q01DX009 (ip), vehicle: saline 102 % of control | [14] 103 % of control | dose: 400.0 mg/kg/injection, schedule: Q01DX009 (ip), vehicle: saline 104 % of control | [15] 103 % of control

Cc1c(S(=O)(=O)F)ccc(O)c1[N+](=O)[O-]
inactive: [6] 104 % of control | [8] 104 % of control | [10] 110 % of control

CCC(C)C(NC(=O)CNC(=O)OCc1ccccc1)C(=O)O (stereo not drawn) (Cbz-Gly-[ξI]-OH)
inactive: [16] 107 % of control | [17] 97 % of control | [18] 98 % of control

Cn1ccc(=O)c2cc([N+](=O)[O-])ccc21
inactive: dose: 25.0 mg/kg/injection, schedule: Q01DX009 (ip), vehicle: water 90 % of control | dose: 50.0 mg/kg/injection, schedule: Q01DX009 (ip), vehicle: water 93 % of control | dose: 100.0 mg/kg/injection, schedule: Q01DX009 (ip), vehicle: water 86 % of control | dose: 100.0 mg/kg/injection, schedule: Q04DX002 (ip), vehicle: saline with Tween-80 104 % of control and 106 % of control | [16] 115 % of control and 90 % of control | dose: 200.0 mg/kg/injection, schedule: Q01DX009 (ip), vehicle: water 95 % of control | dose: 200.0 mg/kg/injection, schedule: Q04DX002 (ip), vehicle: saline with Tween-80 109 % of control and 87 % of control | [17] 97 % of control and 102 % of control | dose: 400.0 mg/kg/injection, schedule: Q04DX002 (ip), vehicle: saline with Tween-80 87 % of control and 88 % of control | [18] 88 % of control

CCOP(=O)(Nc1ccc2c(c1)Cc1c-2cc(Br)c(NC(C)=O)c1Br)OCC
inactive: dose: 50.0 mg/kg/injection, schedule: Q01DX001 (ip), vehicle: carboxymethylcellulose (CMC) 97 % of control | dose: 100.0 mg/kg/injection, schedule: Q01DX001 (ip), vehicle: carboxymethylcellulose (CMC) 94 % of control | dose: 200.0 mg/kg/injection, schedule: Q01DX001 (ip), vehicle: carboxymethylcellulose (CMC) 105 % of control | dose: 400.0 mg/kg/injection, schedule: Q01DX001 (ip), vehicle: carboxymethylcellulose (CMC) 100 % of control

Cc1ccc(S(=O)(=O)OCC2C3C=CC(C4C=CC43)C2COS(=O)(=O)c2ccc(C)cc2)cc1 (stereo not drawn)
inactive: [7] 94 % of control | [9] 98 % of control | [11] 98 % of control

NCCCNCC1C(c2ccccc2)C1c1ccccc1 (stereo not drawn)
inactive: [4] 100 % of control | [5] 114 % of control

CCC12C=CCN3CCC4(c5cc(C(c6ccc(OC)cc6)c6cc7ccccc7n6S(=O)(=O)c6ccccc6)c(OC)cc5N(C)C4C(O)(C(=O)OC)C1OC(C)=O)C32 (stereo not drawn)
inactive: [5] 98 % of control | [7] 98 % of control | [9] 102 % of control

COn1c(CC(=O)C(=O)O)cccc1=O
inactive: [13] 102 % of control | [14] 97 % of control | [15] 94 % of control

N#CCCc1ccc(O)cc1
inactive: dose: 50.0 mg/kg/injection, schedule: Q01DX009 (ip), vehicle: gum acacia 100 % of control | dose: 100.0 mg/kg/injection, schedule: Q01DX009 (ip), vehicle: gum acacia 107 % of control | dose: 100.0 mg/kg/injection, schedule: Q04DX003 (ip), vehicle: gum acacia 97 % of control | dose: 200.0 mg/kg/injection, schedule: Q01DX009 (ip), vehicle: gum acacia 93 % of control | dose: 200.0 mg/kg/injection, schedule: Q04DX003 (ip), vehicle: gum acacia 97 % of control

C=C(Cl)CN(CC)CCO
inactive: [16] 98 % of control | [17] 102 % of control | [18] 108 % of control

Cc1cc(C)c([I+]c2ccccc2C(=O)[O-])c(C)c1
inactive: [1] 97 % of control | [2] 105 % of control | [3] 100 % of control | [12] 103 % of control

O=c1[nH]c(=O)c2[nH]c(Br)c(Br)c2[nH]1
inactive: [2] 93 % of control | [3] 96 % of control | [12] 93 % of control

[Cl][Pt+2][Cl].[NH-]C(CCCN)C(=O)O.[NH-]C(CCCN)C(=O)O (stereo not drawn)
inactive: dose: 50.0 mg/kg/injection, schedule: Q04DX003 (ip), vehicle: saline with Tween-80 103 % of control | [16] 104 % of control and 115 % of control | [17] 97 % of control and 102 % of control

From PubChem BioAssay AID248 (DTP/NCI, 2004)
